One data set relates to Ku. As to conditions: fluorescence polarization with labelled peptides; cited from earlier work.
Another data set relates to Ku80. The conditions noted are these: yeast two-hybrid experiments or EMSA; cited from earlier work.
The subject of data set [1] is DSBs sites in XLF-defective BuS cells. Description: Live cell recruitment of CFP-XLF to laser sites, BuS cells. It is filed as cell-based, human. As to conditions: for Recruitment to laser-irradiated sites, full-length XLF: CFP-XLF in BuS cells, n=20 cells, WT vs L297W p=0.0093, WT vs L297E p<0.0001.
Data set [2] concerns the target KuFL (full length Ku70/Ku80) (Homo sapiens, UniProt P12956+P13010). Description: ITC, ligand into KuFL. Format: binding. As to conditions: 25°C, pH 8.0, KuFL in cell, line 9 deduced from the first injection point. In general terms: ITC needs no label: the signal is the heat of the interaction.
The target in data set [3] is T1, Ku70 full length;Ku80 full length (human?;human?, UniProt P12956;P13010 1-609;1-732, |). Briefly: ITC.
In data set [4] the target is Ku70 full length;Ku80 full length;XLF full length (human?;human?;human?, UniProt P12956;P13010;Q9H9Q4 1-609;1-732;1-299, ||). Briefly: EMSA. (In general: In EMSA bound probe runs differently from free probe, usually more slowly.)
In data set [5] the target is Ku70cc;Ku80cc;pXLFs (short X-KBM peptide) (human?;human?;human?, UniProt P12956;P13010;Q9H9Q4 1-544;1-551;287-299, ||). Description: X-ray crystallography 2.9 A.
Data set [6] addresses Ku70cc;Ku80cc;pAPLF (A-KBM peptide) (human?;human?;human?, UniProt P12956;P13010;Q8IW19 1-544;1-551;174-191, ||). Description: X-ray crystallography 3.0 A.
For data set [7], the target named is Ku70cc;Ku80cc;pXLF (long X-KBM peptide) (human?;human?;human?, UniProt P12956;P13010;Q9H9Q4 1-544;1-551;281-299, ||). Description: X-ray crystallography 2.8 A.
For data set [8], the target named is T1, Ku70 full length;Ku80 full length. Description: switchSENSE.

No end group written: not given here.

T1 sequence (P12956 whole entry, chain 1 of 2): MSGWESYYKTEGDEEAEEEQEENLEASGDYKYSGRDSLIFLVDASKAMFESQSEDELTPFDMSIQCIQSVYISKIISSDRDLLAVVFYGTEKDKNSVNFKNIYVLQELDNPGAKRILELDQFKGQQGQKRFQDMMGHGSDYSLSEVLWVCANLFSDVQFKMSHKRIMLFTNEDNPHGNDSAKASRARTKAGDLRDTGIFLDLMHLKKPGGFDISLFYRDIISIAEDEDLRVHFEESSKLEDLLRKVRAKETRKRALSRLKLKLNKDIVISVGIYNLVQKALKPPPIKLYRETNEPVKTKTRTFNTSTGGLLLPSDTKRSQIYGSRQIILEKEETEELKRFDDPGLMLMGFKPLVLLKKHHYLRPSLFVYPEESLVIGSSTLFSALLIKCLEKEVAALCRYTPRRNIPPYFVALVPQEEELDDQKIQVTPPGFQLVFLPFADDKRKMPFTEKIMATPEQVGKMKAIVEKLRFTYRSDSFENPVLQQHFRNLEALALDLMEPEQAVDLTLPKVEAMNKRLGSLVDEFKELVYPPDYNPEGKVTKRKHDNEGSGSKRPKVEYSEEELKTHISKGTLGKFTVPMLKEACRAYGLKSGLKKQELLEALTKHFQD
T1 sequence (P13010 whole entry, chain 2 of 2): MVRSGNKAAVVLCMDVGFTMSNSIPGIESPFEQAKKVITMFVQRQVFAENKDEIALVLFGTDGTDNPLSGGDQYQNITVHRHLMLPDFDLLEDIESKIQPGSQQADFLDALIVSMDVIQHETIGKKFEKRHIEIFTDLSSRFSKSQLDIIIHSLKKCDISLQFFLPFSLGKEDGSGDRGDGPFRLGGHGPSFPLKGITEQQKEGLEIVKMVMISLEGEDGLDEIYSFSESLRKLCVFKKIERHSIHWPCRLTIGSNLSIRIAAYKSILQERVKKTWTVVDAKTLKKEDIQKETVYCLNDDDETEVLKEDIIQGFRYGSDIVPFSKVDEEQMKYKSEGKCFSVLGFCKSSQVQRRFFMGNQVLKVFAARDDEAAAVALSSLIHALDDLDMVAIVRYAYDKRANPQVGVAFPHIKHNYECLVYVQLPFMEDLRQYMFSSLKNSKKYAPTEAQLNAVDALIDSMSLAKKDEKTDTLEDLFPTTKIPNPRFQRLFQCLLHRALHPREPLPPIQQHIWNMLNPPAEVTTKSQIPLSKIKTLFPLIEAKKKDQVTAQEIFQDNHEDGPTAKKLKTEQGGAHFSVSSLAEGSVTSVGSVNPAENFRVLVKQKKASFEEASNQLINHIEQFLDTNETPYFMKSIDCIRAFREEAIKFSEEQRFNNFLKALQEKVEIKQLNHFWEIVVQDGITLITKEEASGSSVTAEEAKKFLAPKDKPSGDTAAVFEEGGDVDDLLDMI
Sequence of KuFL (full length Ku70/Ku80) (P13010 whole entry): as the sequence (P13010 whole entry, chain 2 of 2) above
Sequence of KuFL (full length Ku70/Ku80) (P12956 whole entry): as the sequence (P12956 whole entry, chain 1 of 2) above
Sequence of Ku70cc;Ku80cc;pAPLF (A-KBM peptide) (P12956 1-544, chain 1 of 2): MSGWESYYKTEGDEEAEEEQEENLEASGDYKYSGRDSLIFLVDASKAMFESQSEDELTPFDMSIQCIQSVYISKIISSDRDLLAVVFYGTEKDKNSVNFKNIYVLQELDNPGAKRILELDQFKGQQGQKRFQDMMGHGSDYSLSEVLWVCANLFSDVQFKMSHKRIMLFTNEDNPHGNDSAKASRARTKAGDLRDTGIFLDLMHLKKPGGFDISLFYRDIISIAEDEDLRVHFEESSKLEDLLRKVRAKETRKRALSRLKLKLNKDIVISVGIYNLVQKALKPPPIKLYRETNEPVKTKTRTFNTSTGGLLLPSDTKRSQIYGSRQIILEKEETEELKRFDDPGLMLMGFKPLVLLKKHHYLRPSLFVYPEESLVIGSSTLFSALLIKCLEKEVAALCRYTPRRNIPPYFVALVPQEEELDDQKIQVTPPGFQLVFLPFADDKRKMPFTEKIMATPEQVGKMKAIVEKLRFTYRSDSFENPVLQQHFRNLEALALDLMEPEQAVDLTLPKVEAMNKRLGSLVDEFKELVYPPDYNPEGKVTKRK
Sequence of Ku70cc;Ku80cc;pAPLF (A-KBM peptide) (P13010 1-551, chain 2 of 2): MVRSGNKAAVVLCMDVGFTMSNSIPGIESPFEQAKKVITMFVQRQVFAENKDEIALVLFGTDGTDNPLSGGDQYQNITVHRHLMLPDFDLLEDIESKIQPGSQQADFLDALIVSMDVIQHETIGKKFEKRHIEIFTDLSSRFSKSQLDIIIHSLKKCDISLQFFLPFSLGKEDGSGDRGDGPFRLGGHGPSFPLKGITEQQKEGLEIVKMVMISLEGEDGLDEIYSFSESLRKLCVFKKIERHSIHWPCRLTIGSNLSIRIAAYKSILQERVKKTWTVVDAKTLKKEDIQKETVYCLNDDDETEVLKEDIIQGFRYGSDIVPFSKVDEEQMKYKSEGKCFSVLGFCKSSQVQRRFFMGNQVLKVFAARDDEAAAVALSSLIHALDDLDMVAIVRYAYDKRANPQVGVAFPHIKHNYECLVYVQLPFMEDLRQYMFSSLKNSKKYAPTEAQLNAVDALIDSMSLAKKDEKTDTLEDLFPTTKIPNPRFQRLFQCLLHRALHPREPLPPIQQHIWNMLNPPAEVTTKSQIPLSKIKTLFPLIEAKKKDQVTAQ
Sequence of Ku70cc;Ku80cc;pXLFs (short X-KBM peptide) (P12956 1-544, chain 1 of 2): as the sequence (P12956 1-544, chain 1 of 2) above
Sequence of Ku70cc;Ku80cc;pXLFs (short X-KBM peptide) (P13010 1-551, chain 2 of 2): as the sequence (P13010 1-551, chain 2 of 2) above
Sequence of Ku70cc;Ku80cc;pXLF (long X-KBM peptide) (P12956 1-544, chain 1 of 2): as the sequence (P12956 1-544, chain 1 of 2) above
Sequence of Ku70cc;Ku80cc;pXLF (long X-KBM peptide) (P13010 1-551, chain 2 of 2): as the sequence (P13010 1-551, chain 2 of 2) above
Sequence of Ku70 full length;Ku80 full length;XLF full length (P12956 whole entry, chain 1 of 3): as the sequence (P12956 whole entry, chain 1 of 2) above
Sequence of Ku70 full length;Ku80 full length;XLF full length (P13010 whole entry, chain 2 of 3): as the sequence (P13010 whole entry, chain 2 of 2) above
Sequence of Ku70 full length;Ku80 full length;XLF full length (Q9H9Q4 whole entry, chain 3 of 3): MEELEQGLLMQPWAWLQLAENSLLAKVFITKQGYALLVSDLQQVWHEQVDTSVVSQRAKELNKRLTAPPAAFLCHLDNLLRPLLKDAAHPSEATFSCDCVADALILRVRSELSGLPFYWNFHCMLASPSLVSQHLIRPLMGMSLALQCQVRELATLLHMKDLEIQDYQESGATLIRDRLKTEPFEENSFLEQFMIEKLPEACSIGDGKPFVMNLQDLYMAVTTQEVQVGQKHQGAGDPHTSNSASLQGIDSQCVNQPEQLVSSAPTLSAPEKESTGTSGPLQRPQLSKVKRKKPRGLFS

On to `CC(C)C[C@H](NC(=O)CNC(=O)[C@H](CCCNC(=N)N)NC(=O)[C@@H]1CCCN1C(=O)[C@H](CCCCN)NC(=O)[C@H](CCCCN)NC(=O)[C@H](CCCNC(=N)N)NC(=O)[C@H](CCCCN)NC(=O)[C@@H](NC(=O)[C@H](CCCCN)NC(=O)[C@H](CO)NC(=O)[C@H](CC(C)C)NC(=O)[C@H](CCC(N)=O)NC(=O)[C@@H]1CCCN1C(=O)[C@H](CCCNC(=N)N)NC(=O)[C@H](CCC(N)=O)NC(=O)[C@@H](N)CC(C)C)C(C)C)C(=O)N[C@@H](Cc1ccccc1)C(=O)N[C@@H](CO)C(=O)O` [pXLF], for which the Interaction detected entry in the data set with Ku is given as “not detected”.

For APLF: APTX and PNKP-like factor, in the data set on Ku80, the “Effect of Ku80 mutations at L68, Y74, I112 on interaction with APLF” value is reported as “greatly reduce or disrupt the interactions”.

“F298G: XLF mutant in the extreme C-terminus”: in data set [1], the “Recruitment to laser-irradiated sites, full-length XLF” value (“Recruitment to laser-irradiated sites” for short) is recorded as “important reduction of the recruitment”.

Turning to “G296W: XLF mutant in the extreme C-terminus”, the “Recruitment to laser-irradiated sites” value in data set [1] is “important reduction of the recruitment”.

For the molecule “L115D XLF: XLF mutant unable to interact with XRCC4”, the “Recruitment to laser-irradiated sites” value in data set [1] was “efficient recruitment”. The “Effect of APLF knock-down on XLF recruitment” value in [1] (CFP-XLF, APLF knock-down) is recorded as “insensitive to APLF knock-down”.

For the molecule LQRPQLSKVKRKKPRGWFS [pXLF(LW)], the ΔH in [2] was -12.1 ± 2.0 kcal/M.

Turning to “S299E: XLF mutant in the extreme C-terminus”, in [1], the “Recruitment to laser-irradiated sites” value was “important reduction of the recruitment”.

In the case of “XLF L115D/L297E: XLF L115D/L297E double mutant”, in data set [1], the “Recruitment to laser-irradiated sites” value is given as “impaired”.

B1: DNA 18bp (CN3/CN4) (dsDNA)
DNA 1: GTTATCCGAGCGTGAGAC
DNA 2: GTCTCACGCTCGGATAAC
As a reminder, the Kd is the free concentration of one partner at which half of the binding sites on the other are occupied at equilibrium, for simple one-to-one binding. High values mean weaker binding, low ones tighter binding. For the molecule B1, in data set [3], the Kd amounted to 4.1 ± 0.7 nM.

B2: 50bp DNA (MM 50bp up/do) (dsDNA)
DNA 1: TAAATGCCAATGCTGCTGATACGTACTCGGACTGATTCGGAACTGTAACG
DNA 2: CGTTACAGTTCCGAATCAGTCCGAGTACGTATCAGCAGCATTGGCATTTA
As to B2, in [4], the binding result is listed as “binds”.

B3: hDNA (CN1/CN2 hairpin DNA) (structured_DNA)
DNA 1: CGCGCCCAGCTTTCCCAGCTAATAAACTAAAAAC
DNA 2: GTTTTTAGTTTATTGGGCGCG
As to B3, the binding result in data set [5], in data set [6] and in data set [7] was “binds” in each case.

B4: 48bp DNA nanolever (NLB48) (dsDNA)
DNA 1: TAGTCGTAAGCTGATATGGCTGATTAGTCGGAAGCATCGAACGCTGAT
DNA 2: ATCAGCGTTCGATGCTTCCGACTAATCAGCCATATCAGCTTACGACTA
As to B4, the binding result in data set [8] was “binds”.

The values above are taken from article PMC6234012 (Nature structural & molecular biology, 2018).
